From US20120156771A1, “FUNCTIONAL DISRUPTION OF AN IMMUNOGLOBULIN GENE IN AN AVIAN EMBRYONIC STEM CELL” (Origen Therapeutics, Inc., priority 2002, published 2012)

Tested on: chicken embryonic stem cells
Test: Titration kill curve: morphology of cES cells under puromycin or neomycin selection
Type: cell-based
Set-up: key to Morphology of cES cells: ES: ES cells are present.; diff: ES cells are differentiated.; gone: no morphologically recognizable cells are present
Description: In a preferred embodiment, the concentration of puromycin required for selecting transfected cells is calculated as a titration kill curve. Titration kill curves for chicken embryonic stem cells are established by exposing cells in culture to puromycin concentrations varying from 0.0 to 1.0 μg/ml for 10 days (Table 7) and neomycin concentrations varying from 0.0 to 200 μg/ml (Table 8). The medium is changed every 2 days and fresh puromycin or neomycin is added. […] Puromycin concentrations of 0.3-1.0 μg/ml are used for selection of the transfected cultures. Neomycin concentrations over 40 μg/ml eliminated all cES cells within 7 days (Table 8).

neomycin
ES/Diff: Morphology of cES cells (neomycin 30 μg/ml, day 7 under selection) | Morphology of cES cells (neomycin 40 μg/ml, day 5 under selection) | Morphology of cES cells (neomycin 50 μg/ml, day 4 under selection) | Morphology of cES cells (neomycin 50 μg/ml, day 5 under selection) | Morphology of cES cells (neomycin 100 μg/ml, day 1 under selection)
gone: Morphology of cES cells (neomycin 40 μg/ml, day 8 under selection) | Morphology of cES cells (neomycin 40 μg/ml, day 9 under selection) | Morphology of cES cells (neomycin 40 μg/ml, day 10 under selection) | Morphology of cES cells (neomycin 50 μg/ml, day 8 under selection) | Morphology of cES cells (neomycin 50 μg/ml, day 9 under selection) | Morphology of cES cells (neomycin 50 μg/ml, day 10 under selection) | Morphology of cES cells (neomycin 60 μg/ml, day 4 under selection) | Morphology of cES cells (neomycin 60 μg/ml, day 6 under selection) | Morphology of cES cells (neomycin 60 μg/ml, day 7 under selection) | Morphology of cES cells (neomycin 60 μg/ml, day 8 under selection) | Morphology of cES cells (neomycin 60 μg/ml, day 9 under selection) | Morphology of cES cells (neomycin 60 μg/ml, day 10 under selection) | Morphology of cES cells (neomycin 100 μg/ml, day 4 under selection) | Morphology of cES cells (neomycin 100 μg/ml, day 6 under selection) | Morphology of cES cells (neomycin 100 μg/ml, day 7 under selection) | Morphology of cES cells (neomycin 100 μg/ml, day 8 under selection) | Morphology of cES cells (neomycin 100 μg/ml, day 9 under selection) | Morphology of cES cells (neomycin 100 μg/ml, day 10 under selection) | Morphology of cES cells (neomycin 150 μg/ml, day 4 under selection) | Morphology of cES cells (neomycin 150 μg/ml, day 6 under selection) | Morphology of cES cells (neomycin 150 μg/ml, day 7 under selection) | Morphology of cES cells (neomycin 150 μg/ml, day 8 under selection) | Morphology of cES cells (neomycin 150 μg/ml, day 9 under selection) | Morphology of cES cells (neomycin 150 μg/ml, day 10 under selection) | Morphology of cES cells (neomycin 200 μg/ml, day 3 under selection) | Morphology of cES cells (neomycin 200 μg/ml, day 4 under selection) | Morphology of cES cells (neomycin 200 μg/ml, day 6 under selection) | Morphology of cES cells (neomycin 200 μg/ml, day 7 under selection) | Morphology of cES cells (neomycin 200 μg/ml, day 8 under selection) | Morphology of cES cells (neomycin 200 μg/ml, day 9 under selection) | Morphology of cES cells (neomycin 200 μg/ml, day 10 under selection)
ES/diff: Morphology of cES cells (neomycin 30 μg/ml, day 8 under selection)
Diff: Morphology of cES cells (neomycin 30 μg/ml, day 9 under selection) | Morphology of cES cells (neomycin 100 μg/ml, day 2 under selection)
dead: Morphology of cES cells (neomycin 40 μg/ml, day 7 under selection) | Morphology of cES cells (neomycin 100 μg/ml, day 3 under selection) | Morphology of cES cells (neomycin 150 μg/ml, day 2 under selection) | Morphology of cES cells (neomycin 150 μg/ml, day 3 under selection) | Morphology of cES cells (neomycin 200 μg/ml, day 2 under selection)
ES: Morphology of cES cells (neomycin 10 μg/ml, day 1 under selection) | Morphology of cES cells (neomycin 10 μg/ml, day 2 under selection) | Morphology of cES cells (neomycin 10 μg/ml, day 3 under selection) | Morphology of cES cells (neomycin 10 μg/ml, day 4 under selection) | Morphology of cES cells (neomycin 10 μg/ml, day 5 under selection) | Morphology of cES cells (neomycin 10 μg/ml, day 6 under selection) | Morphology of cES cells (neomycin 10 μg/ml, day 7 under selection) | Morphology of cES cells (neomycin 10 μg/ml, day 8 under selection) | Morphology of cES cells (neomycin 10 μg/ml, day 9 under selection) | Morphology of cES cells (neomycin 10 μg/ml, day 10 under selection) | Morphology of cES cells (neomycin 20 μg/ml, day 1 under selection) | Morphology of cES cells (neomycin 20 μg/ml, day 2 under selection) | Morphology of cES cells (neomycin 20 μg/ml, day 3 under selection) | Morphology of cES cells (neomycin 20 μg/ml, day 4 under selection) | Morphology of cES cells (neomycin 20 μg/ml, day 5 under selection) | Morphology of cES cells (neomycin 20 μg/ml, day 6 under selection) | Morphology of cES cells (neomycin 20 μg/ml, day 7 under selection) | Morphology of cES cells (neomycin 20 μg/ml, day 8 under selection) | Morphology of cES cells (neomycin 20 μg/ml, day 9 under selection) | Morphology of cES cells (neomycin 20 μg/ml, day 10 under selection) | Morphology of cES cells (neomycin 30 μg/ml, day 1 under selection) | Morphology of cES cells (neomycin 30 μg/ml, day 2 under selection) | Morphology of cES cells (neomycin 30 μg/ml, day 3 under selection) | Morphology of cES cells (neomycin 30 μg/ml, day 4 under selection) | Morphology of cES cells (neomycin 30 μg/ml, day 5 under selection) | Morphology of cES cells (neomycin 30 μg/ml, day 6 under selection) | Morphology of cES cells (neomycin 40 μg/ml, day 1 under selection) | Morphology of cES cells (neomycin 40 μg/ml, day 2 under selection) | Morphology of cES cells (neomycin 40 μg/ml, day 3 under selection) | Morphology of cES cells (neomycin 40 μg/ml, day 4 under selection) | Morphology of cES cells (neomycin 50 μg/ml, day 1 under selection) | Morphology of cES cells (neomycin 50 μg/ml, day 2 under selection) | Morphology of cES cells (neomycin 50 μg/ml, day 3 under selection) | Morphology of cES cells (neomycin 60 μg/ml, day 1 under selection) | Morphology of cES cells (neomycin 60 μg/ml, day 2 under selection) | Morphology of cES cells (neomycin 60 μg/ml, day 3 under selection)
Gone: Morphology of cES cells (neomycin 60 μg/ml, day 5 under selection) | Morphology of cES cells (neomycin 100 μg/ml, day 5 under selection) | Morphology of cES cells (neomycin 150 μg/ml, day 5 under selection) | Morphology of cES cells (neomycin 200 μg/ml, day 5 under selection)
over 40 μg/ml: Neomycin concentrations that eliminated all cES cells (within 7 days)
